Experimental findings from US8053603B2, “Tetralone-based monoamine reuptake inhibitors” (Sunovion Pharmaceuticals Inc., priority 2006, dated 2011) are described below.

Holding throughout (format): cell-based
The target in experiment [1] is T1, recombinant human serotonin transporter (Homo sapiens, UniProt P31645).
T1 construct: expressed in transfected cells; host or cells: HEK-293
Briefly: Serotonin functional uptake assay for human reuptake transporter. To be noted: [3H]serotonin uptake, HEK-293 cells expressing human serotonin transporter; read-out: Human IC50 (nM) SERT. The procedure:
Serotonin Functional Uptake Assay for Human Reuptake Transporter
HEK-293 cells expressing human serotonin transporter were plated before the assay. […] Cells with internalized [^3H]serotonin were washed and the amount of tritium taken into cells is counted using a liquid scintillation counter to determine [^3H]serotonin uptake.

Experiment [2] has as its target T2, recombinant human dopamine transporter (Homo sapiens, UniProt Q01959).
T2 construct: expressed in transfected cells; host or cells: CHO-K1 or HEK293
Briefly: Dopamine functional uptake assay for human reuptake transporter. Particulars: [3H]dopamine uptake, CHO-K1 or HEK293 cells expressing human dopamine transporter; read-out: Human IC50 (nM) DAT. How it is done:
Dopamine Functional Uptake Assay for Human Reuptake Transporter
Either CHO-K1 or HEK293 cells expressing human recombinant dopamine transporter were plated before the assay. Test compound and/or vehicle was preincubated with cells in modified HEPES buffer pH 7.1 or pH 7.4 for 20 minutes at 18 to 25° C. and 50 nM [^3H]dopamine was then added for an additional timed incubation period (10 to 30 minutes). After washing the cells to remove [^3H]dopamine not internalized, the cells were lysed, and the amount of tritium in the lysate was measured using a liquid scintillation counter to determine [^3H]dopamine uptake. Non-specific binding of tritium was measured in a control reaction containing 10 μM nomifensine, and was subtracted from the counts for assays to correct for non-specific binding of tritium. Reduction of [^3H]dopamine uptake by 50 percent or more (≧50%) relative to an uninhibited control reaction indicates significant inhibitory activity.

Experiment [3] concerns the target T3, recombinant human norepinephrine transporter (Homo sapiens, UniProt P23975).
T3 construct: expressed in transfected cells; host or cells: HEK293 or MDCK
Briefly: Norepinephrine functional uptake assay for human reuptake transporter. Particulars: [3H]norepinephrine uptake, HEK293 or MDCK cells expressing human norepinephrine transporter. The procedure:
Norepinephrine Functional Uptake Assay for Human Reuptake Transporter
The cells were plated before the assay. Test compound and/or vehicle was preincubated with cells in modified HEPES buffer pH 7.1 or pH 7.4 for 20 minutes at 18 to 25° C. . […] After the cells were washed to remove [^3H]norepinephrine not internalized, the cells were lysed, and the amount of tritium in the cell lysate was measured using a liquid scintillation counter to determine [^3H]norepinephrine uptake. Non-specific binding of tritium was measured in a control reaction containing 10 μM imipramine (or 10 μM nisoxetine), and was subtracted from the counts for assays to correct for non-specific binding of tritium. Reduction of [^3H]norepinephrine uptake by 50 percent or more (≧50%) relative to an uninhibited control reaction indicates significant inhibitory activity.

Read-outs that look alike come from different tables or passages of the source.

T1 sequence (P31645 whole entry): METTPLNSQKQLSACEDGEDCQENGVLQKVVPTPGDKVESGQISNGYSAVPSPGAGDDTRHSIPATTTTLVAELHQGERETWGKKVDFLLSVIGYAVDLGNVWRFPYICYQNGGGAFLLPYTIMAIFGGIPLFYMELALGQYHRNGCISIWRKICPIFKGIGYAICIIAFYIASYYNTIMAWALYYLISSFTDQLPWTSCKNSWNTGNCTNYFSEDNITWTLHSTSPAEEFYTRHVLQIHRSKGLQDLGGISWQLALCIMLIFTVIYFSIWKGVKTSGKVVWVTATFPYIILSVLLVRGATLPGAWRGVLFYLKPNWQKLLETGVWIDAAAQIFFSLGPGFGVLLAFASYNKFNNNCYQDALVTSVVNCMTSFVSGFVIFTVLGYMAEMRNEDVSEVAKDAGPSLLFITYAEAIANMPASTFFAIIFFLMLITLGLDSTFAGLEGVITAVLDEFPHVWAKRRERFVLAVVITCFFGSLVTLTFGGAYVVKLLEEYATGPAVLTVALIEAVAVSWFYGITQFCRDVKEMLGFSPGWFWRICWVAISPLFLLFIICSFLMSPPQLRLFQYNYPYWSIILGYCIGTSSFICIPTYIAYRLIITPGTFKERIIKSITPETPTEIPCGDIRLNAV
T3 sequence (P23975 whole entry): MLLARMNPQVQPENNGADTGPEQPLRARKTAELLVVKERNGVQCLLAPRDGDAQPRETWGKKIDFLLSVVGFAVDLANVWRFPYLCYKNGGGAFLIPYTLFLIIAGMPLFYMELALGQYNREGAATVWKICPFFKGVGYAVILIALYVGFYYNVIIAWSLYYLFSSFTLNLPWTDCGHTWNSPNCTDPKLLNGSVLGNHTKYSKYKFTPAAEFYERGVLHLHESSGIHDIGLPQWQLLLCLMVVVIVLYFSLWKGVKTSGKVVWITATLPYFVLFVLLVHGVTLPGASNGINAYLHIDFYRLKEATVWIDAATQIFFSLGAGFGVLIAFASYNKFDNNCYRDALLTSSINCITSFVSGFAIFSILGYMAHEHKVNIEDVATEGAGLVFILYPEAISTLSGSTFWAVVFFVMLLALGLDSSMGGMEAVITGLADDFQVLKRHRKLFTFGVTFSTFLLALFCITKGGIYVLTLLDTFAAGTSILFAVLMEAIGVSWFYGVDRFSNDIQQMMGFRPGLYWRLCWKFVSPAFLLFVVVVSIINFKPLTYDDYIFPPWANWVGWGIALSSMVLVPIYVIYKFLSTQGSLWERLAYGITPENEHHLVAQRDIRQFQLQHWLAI
T2 sequence (Q01959 whole entry): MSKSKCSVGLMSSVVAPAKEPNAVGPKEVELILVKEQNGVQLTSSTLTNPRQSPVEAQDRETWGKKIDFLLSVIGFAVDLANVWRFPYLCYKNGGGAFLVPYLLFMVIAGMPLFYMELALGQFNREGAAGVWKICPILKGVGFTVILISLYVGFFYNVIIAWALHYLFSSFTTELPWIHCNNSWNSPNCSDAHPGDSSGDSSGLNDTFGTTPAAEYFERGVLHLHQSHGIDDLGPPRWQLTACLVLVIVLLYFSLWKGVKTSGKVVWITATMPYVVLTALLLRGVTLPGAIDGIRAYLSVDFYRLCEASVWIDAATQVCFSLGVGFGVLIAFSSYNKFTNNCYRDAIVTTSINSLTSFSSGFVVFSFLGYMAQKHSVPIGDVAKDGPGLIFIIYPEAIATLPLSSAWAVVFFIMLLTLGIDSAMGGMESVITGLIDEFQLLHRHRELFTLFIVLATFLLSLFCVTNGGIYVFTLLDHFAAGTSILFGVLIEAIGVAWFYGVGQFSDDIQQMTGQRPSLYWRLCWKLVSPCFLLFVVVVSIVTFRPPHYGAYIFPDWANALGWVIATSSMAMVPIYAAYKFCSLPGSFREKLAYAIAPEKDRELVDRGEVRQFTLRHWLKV

`CC(N)C1=Cc2ccccc2[C@H](c2ccc(Cl)c(Cl)c2)C1` (single isomer, unassigned) [Compound 46]: the IC50 in experiment [1] is 50 nM; in experiment [2], 1660 nM; in experiment [3] (Human IC50 (nM) NET), 580 nM.
As to `CN[C@H]1Cc2ccc(OC)cc2[C@@H](c2ccc(Cl)c(Cl)c2)C1` (single isomer, unassigned) [Compound 32a.4, 4-(3,4-dichlorophenyl)-6-methoxy-N-methyl-1,2,3,4-tetrahydronaphthalen-2-amine], the IC50 in experiment [1] stood at 958 nM; in experiment [2] it was 1680 nM; in experiment [3] (read-out: Human IC50 (nM) NET), 786 nM.
Consider `CN(C)[C@H]1CCc2ccccc2[C@H]1c1ccc(Cl)c(Cl)c1` (single isomer, unassigned) [Compound 37d, 1-(3,4-dichlorophenyl)-N,N-dimethyl-1,2,3,4-tetrahydronaphthalen-2-amine], for which the IC50 in experiment [1] amounted to 3150 nM; in experiment [2], 36 nM; in experiment [3] (read-out: Human IC50 (nM) NET) it was 1010 nM.
For the compound `CC(N)[C@@H]1Cc2ccccc2[C@H](c2ccc(Cl)c(Cl)c2)C1` (stereo partly drawn) [Compound 51, 1-((2S,4S)-4-(3,4-dichlorophenyl)-1,2,3,4-tetrahydronaphthalen-2-yl)ethanamine], the values for the IC50 in experiment [1], in experiment [2] and in experiment [3] (Human IC50 (nM) NET) were 2 nM, 30 nM and 12 nM, respectively.
In the case of `CC1(C)C[C@@H](c2ccc(Cl)c(Cl)c2)c2ccccc2C1N` (stereo partly drawn) [Compound 59, (4S)-4-(3,4-dichlorophenyl)-2,2-dimethyl-1,2,3,4-tetrahydronaphthalen-1-amine], the IC50 was 5500 nM in experiment [1], 1080 nM in experiment [2] and over 10000 nM in experiment [3] (read-out: Human IC50 (nM) NET).
`CN[C@H]1Cc2cc(OC)ccc2[C@@H](c2ccc(Cl)c(Cl)c2)C1` (stereo in doubt) [Compound 32c.3, 4-(3,4-dichlorophenyl)-7-methoxy-N-methyl-1,2,3,4-tetrahydronaphthalen-2-amine]: the IC50 in experiment [1] worked out at 105 nM; in experiment [2] it was 92 nM; in experiment [3] (read-out: Human IC50 (nM) NET), 198 nM.
For `CN[C@H]1Cc2cc(OC)ccc2[C@@H](c2ccc(Cl)c(Cl)c2)C1` (single isomer, unassigned) [Compound 32c.4, 4-(3,4-dichlorophenyl)-7-methoxy-N-methyl-1,2,3,4-tetrahydronaphthalen-2-amine], in that order: 209 nM, 78 nM and 111 nM.
For `CC([C@@H]1Cc2ccccc2[C@H](c2ccc(Cl)c(Cl)c2)C1)N(C)C` (single isomer, unassigned) [Compound 54], in that order: 815 nM, 1900 nM and 1700 nM.
In the case of `CN[C@@H]1Cc2cccc(OC)c2[C@H](c2ccc(Cl)c(Cl)c2)C1` (single isomer, unassigned) [Compound 32b.1, 4-(3,4-dichlorophenyl)-5-methoxy-N-methyl-1,2,3,4-tetrahydronaphthalen-2-amine], the IC50 came to 359 nM in experiment [1], 83 nM in experiment [2] and 2330 nM in experiment [3] (read-out: Human IC50 (nM) NET).
For `CN[C@H]1Cc2cc(OC)ccc2[C@@H](c2ccc(Cl)c(Cl)c2)C1` (single isomer, unassigned) [Compound 32c.2, 4-(3,4-dichlorophenyl)-7-methoxy-N-methyl-1,2,3,4-tetrahydronaphthalen-2-amine], in that order: 29 nM, 109 nM and 112 nM.
On to `COc1ccc2c(c1)C(c1ccc(Cl)c(Cl)c1)CC(N(C)C)C2` (single isomer, unassigned) [Compound 33a.2, 4-(3,4-dichlorophenyl)-6-methoxy-N,N-dimethyl-2,3,4-tetrahydronaphthalen-2-amine], for which the values for the IC50 in experiment [1], in experiment [2] and in experiment [3] (read-out: Human IC50 (nM) NET) were 156 nM, 396 nM and 2260 nM, respectively.
Taken in the same sequence, the figures for `CC([C@@H]1Cc2ccccc2[C@H](c2ccc(Cl)c(Cl)c2)C1)N(C)C` (single isomer, unassigned) [Compound 53] were 58 nM, 495 nM and 399 nM.
